Results on 41 molecules are retold here after patent US10870660B2, “Nitrogen-containing condensed ring compounds having dopamine D3 antagonistic effect” (Shionogi & Co., Ltd., priority 2016, dated 2020).

In assay [1] the target is human recombinant dopamine D2 receptor (Homo sapiens (Human), UniProt P14416). In words: Test of binding inhibition for the human dopamine D2 receptor ([3H]-Metylspiperone SPA binding). The following applies: [3H]-Metylspiperone 1.2 nM, Jump-In HEK cell membranes, read-out: hD2_Ki. On the procedure:
Cell membranes: Jump-In HEK cell membranes expressing human recombinant dopamine D2 receptor (2 μg/well)
Buffer solution: 50 mM Tris-HCl (35409-45, Nacalai Tesque) (pH 7.4) containing 120 mM NaCl (31320-05, Nacalai Tesque), 1 mM MgCl2.6H2O (20909-55, Nacalai Tesque), 5 mM KCl (28514-75, Nacalai Tesque) and 2 mM CaCl2 (067-31, Nacalai Chemical, Ltd)
Radioligand: (final concentration) 1.2 nM [^3H]-Metylspiperone ([^3H—N-methyl-]-Metylspiperone, NET-856, 83.8 Ci/mmol, PerkinElmer)
(§1) Non-specific ligand: (final concentration) 10 μM Butaclamol [(+)-Butaclamol Hydrochioride, D033, Sigma]
(§2) SPA beads: SPA beads [WGA PVT SPA Scintillatiion Beads, RPNQ0001 (500 mg), RPNQ0060 (2 g), PerkinElmer] (0.2 mg/well)
(§3) Incubation time and temperature: 120 min at 25° C.
(§4) Butaclamol or the compounds of the present invention were weighed and DMSO was added to make a 10 mM solution. This solution was diluted to each concentration.
[^3H]-Metylspiperone was weighed and the buffer solution was added to make a 3.6 nM solution.
(§5) SPA beads were weighed and stirred in water to make a 50 mg/mL solution. Using this solution, a mixed solution with the cell membranes was prepared.
225 nL of the solutions of the non-specific ligand or the compounds of the present invention at each concentration (in case of vehicle, final concentration 0.3% DMSO) were added in each well of a 384-well white/clear bottom microplate (3706, Corning). Jump-In HEK Cell membranes (final reaction amount: 2 μg protein/well), SPA beads (final reaction amount: 0.2 mg/well) and the buffer were mixed and the mixed solution was left still for more than or equal to 1 h at 4° C. Then, 50 μL of the mixture was added to each well of the plate. In addition, 25 μL of 3.6 nM [^3H]-Metylspiperone (final concentration: 1.2 nM) was added to each well. The plate was sealed by putting TopSeal-A 96/384 well (6050185, PerkinElmer) on the top of the plate, mixed using stirring deaerator (Welltornado, FK-62, Sakaki) and incubated for 120 min at 25° C. After incubation, the radioactivity of [^3H]-Metylspiperone which was binded to D2 receptor was determined by liquid scintillation counter (1450 Microbeta, PerkinElmer) in each well. Non-specific binding was calculated based on the radioactivity of [^3H]-Metylspiperone in the presence of 10 μM non-labeled Butaclamol. The total binding was calculated using the radioactivity of [^3H]-Metylspiperone in the absence of the compounds of the present invention (Vehicle). The Ki values were calculated from dose-response curves.
(§6) Binding activities of the compounds of the present invention were calculated from the following Binding Inhibition Rate (%): Inhibition Rate (%)=[1−(c−a)(b−a)]×100(%) • a: Average cpm of non-specific binding • b: Average cpm of total binding • c: Cpm in the presence of each test compound

Assay [2] addresses human recombinant dopamine D3 receptor (Homo sapiens (Human), UniProt P35462). In words: Test of binding inhibition for the human dopamine D3 receptor ([3H]-Metylspiperone SPA binding). The following applies: [3H]-Metylspiperone 2 nM, Jump-In HEK cell membranes, read-out: hD3_Ki. The procedure:
Cell membranes: Jump-In HEK cell membranes expressing human recombinant dopamine D3 receptor (4 μg/well)
as §1, §2, §3, §4
[^3H]-Metylspiperone was weighed and the buffer solution was added to make a 6 nM solution.
as §5
Jump-In HEK Cell membranes (final reaction amount: 4 μg/well), SPA beads (final reaction amount: 0.2 mg/well) and Tris-HCl buffer were mixed and the mixed solution was left still for more than 60 min at 4° C. Then, 50 μL of the mixture was added to each well of the plate. In addition, 25 μL of 6 nM [^3H]-Metylspiperone (final concentration: 2 nM) was added to each well. […] Non-specific binding was calculated based on the radioactivity of [^3H]-Metylspiperone in the presence of 10 μM non-labeled Butaclamol. The total binding was calculated based on the radioactivity of [^3H]-Metylspiperone in the absence of the compounds of the present invention (Vehicle). The Ki values were calculated from dose-response curves.
as §6

pKi: −log10 of the molar value.

Sequence of human recombinant dopamine D3 receptor (P35462 whole entry): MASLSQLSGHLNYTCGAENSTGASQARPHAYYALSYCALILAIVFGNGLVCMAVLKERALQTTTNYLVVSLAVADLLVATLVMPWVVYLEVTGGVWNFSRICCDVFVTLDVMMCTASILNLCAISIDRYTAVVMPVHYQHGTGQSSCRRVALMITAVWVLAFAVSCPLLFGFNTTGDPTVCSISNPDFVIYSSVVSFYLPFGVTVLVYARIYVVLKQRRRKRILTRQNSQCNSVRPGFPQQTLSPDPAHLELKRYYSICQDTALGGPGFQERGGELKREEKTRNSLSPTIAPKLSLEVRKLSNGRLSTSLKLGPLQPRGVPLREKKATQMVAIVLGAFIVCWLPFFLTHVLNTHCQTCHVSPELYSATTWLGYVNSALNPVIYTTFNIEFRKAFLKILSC
Sequence of human recombinant dopamine D2 receptor (P14416 whole entry): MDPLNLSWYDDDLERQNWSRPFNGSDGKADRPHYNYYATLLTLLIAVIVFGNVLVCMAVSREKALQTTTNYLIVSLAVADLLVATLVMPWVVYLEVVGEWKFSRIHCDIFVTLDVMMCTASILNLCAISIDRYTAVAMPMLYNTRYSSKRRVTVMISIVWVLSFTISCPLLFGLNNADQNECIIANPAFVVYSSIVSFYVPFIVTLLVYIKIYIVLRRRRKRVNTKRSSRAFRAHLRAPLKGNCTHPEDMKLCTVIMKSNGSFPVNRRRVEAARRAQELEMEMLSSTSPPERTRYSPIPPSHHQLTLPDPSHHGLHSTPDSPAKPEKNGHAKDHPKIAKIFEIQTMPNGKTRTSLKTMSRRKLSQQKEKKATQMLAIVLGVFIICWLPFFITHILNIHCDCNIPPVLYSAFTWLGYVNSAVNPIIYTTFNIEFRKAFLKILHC

As to `O=C(N[C@H]1CC[C@H](CCN2CC[C@H]3CN(c4ccccc4)C[C@@H]3C2)CC1)c1cccc2ncccc12` (racemic) [Compound I-033], the pKi was 6.77 in assay [1] and 8.44 in assay [2].

Consider `Cn1cc2c(C(=O)NC3CC4(CC(CCN5CCc6sc(OCC(C)(F)F)nc6C5)C4)C3)cccc2n1` (single isomer, unassigned) [III-624], for which the values for the pKi in assay [1] and in assay [2] were 6.40 and 10.04, respectively.

`O=C(N[C@H]1CC[C@H](CCN2CCc3sc(C4=CCOCC4)nc3C2)CC1)c1cccc2ncccc12` [Compound I-001]: the pKi in assay [1] was less than 5.77; in assay [2], 7.96.

As to `O=C(N[C@H]1CC[C@H](CCN2CCc3sc(Br)nc3C2)CC1)c1cccc2ncccc12` [Compound I-003], the results for the pKi in assay [1] and in assay [2] were less than 5.72 and 8.59, respectively.

As to `O=C(N[C@H]1CC[C@H](CCN2CCc3sc(Cc4ccccc4)nc3C2)CC1)c1cccc2ncccc12` [Compound I-014], the pKi in assay [1] was less than 5.77; in assay [2] it was 8.89.

Take `O=C(N[C@H]1CC[C@H](CCN2CCc3nc(-c4ccccc4)sc3C2)CC1)c1cccc2ncccc12` [Compound I-018]: the pKi was less than 5.77 in assay [1] and 7.92 in assay [2].

Take `Cn1c(C#N)cc2c1CCN(CC[C@H]1CC[C@H](NC(=O)c3cccc4ncccc34)CC1)C2` [Compound I-052]: the pKi in assay [1] was 5.96; in assay [2], 9.00.

In the case of `Cn1c(-c2ccccc2)nc2c1CCN(CC[C@H]1CC[C@H](NC(=O)c3cccc4ncccc34)CC1)C2` [Compound I-070], the pKi in assay [1] is 6.30; in assay [2], 8.85.

Regarding `CC(F)(F)COc1nc2c(s1)CCN(CC[C@H]1CC[C@H](NC(=O)c3cccc4ncccc34)CC1)C2` [Compound I-071], the pKi was 6.82 in assay [1] and 9.89 in assay [2].

Consider `O=C(N[C@H]1CC[C@H](CCN2CCc3sc(N4CC5CC5C4)nc3C2)CC1)c1cccc2ncccc12` (stereo partly drawn) [Compound I-073], for which the pKi is less than 5.77 in assay [1] and 10.10 in assay [2].

For the molecule `CC1c2nc(OCC(F)F)sc2CCN1CC[C@H]1CC[C@H](NC(=O)c2cccc3ncccc23)CC1` (stereo partly drawn) [Compound I-101], the pKi is less than 5.77 in assay [1] and 8.09 in assay [2].

With `Cc1ncc(CC(=O)N[C@H]2CC[C@H](CCN3CCc4sc(OCC(F)F)nc4C3)CC2)s1` [Compound I-107], the pKi in assay [1] was 6.43; in assay [2] it was 9.09.

For the molecule `Cn1cc(CC(=O)N[C@H]2CC[C@H](CCN3CCc4sc(OCC(F)F)nc4C3)CC2)cn1` [Compound I-108], the pKi in assay [1] was 5.85; in assay [2], 8.82.

Turning to `O=C(N[C@H]1CC[C@H](CCN2CCc3cn(Cc4ccccc4)nc3C2)CC1)c1cccc2ncccc12` [Compound I-113], the pKi in assay [1] is less than 5.77; in assay [2] it was 8.33.

Consider `O=C(N[C@H]1C[C@@H]2[C@@H](CCN3CCc4sc(OCC(F)F)nc4C3)[C@@H]2C1)c1cccc2ncccc12` [Compound I-124], for which the pKi is 6.07 in assay [1] and 9.04 in assay [2].

Take `O=C(N[C@H]1CC[C@H](CCN2CCc3cnc(CC4CC4)nc3C2)CC1)c1cccc2ncccc12` [Compound I-133]: the pKi is less than 5.77 in assay [1] and 8.10 in assay [2].

Regarding `O=C(N[C@H]1CC[C@H](CCN2CCc3nc(OCC(F)F)ncc3C2)CC1)c1cccc2ncccc12` [Compound I-136], the pKi was less than 5.74 in assay [1] and 7.60 in assay [2].

Regarding `O=C(N[C@H]1CC[C@H](CCN2CCc3ccc(OCC(F)F)nc3C2)CC1)c1cccc2ncccc12` [Compound I-139], the pKi is less than 5.77 in assay [1] and 9.16 in assay [2].

In the case of `O=C(NCCCCN1CCc2sc(OCC(F)(F)F)nc2C1)c1ccc2ccccc2c1` [Compound I-140], the figures for the pKi in assay [1] and in assay [2] were 5.92 and 8.72, respectively.

For the molecule `O=C(N[C@H]1CC[C@H](CCN2CCc3sc(OCC(F)(F)F)nc3C2)OC1)c1cccc2ncccc12` [Compound I-142], the pKi is 6.19 in assay [1] and 9.14 in assay [2].

Take `Cc1ncc(CC(=O)N[C@H]2CC[C@H](CCN3CCc4ccc(OCC(F)F)nc4CC3)CC2)s1` [II-005]: the pKi is 6.37 in assay [1] and 10.07 in assay [2].

Turning to `CC(=O)N[C@H]1CC[C@H](CCN2CCc3nc(OCC(C)(F)F)sc3CC2)CC1` [II-014], the pKi in assay [1] is 6.64; in assay [2], 9.35.

Consider `O=C(CCC(F)(F)F)N[C@H]1CC[C@H](CCN2CCc3nc(CCC(F)(F)F)sc3CC2)CC1` [II-018], for which the pKi in assay [1] is less than 5.74; in assay [2], 8.57.

As to `Cc1nc(CC(=O)N[C@H]2CC[C@H](CCN3CCc4nc(CCC(F)(F)F)sc4CC3)CC2)no1` [II-019], the pKi in assay [1] was less than 5.74; in assay [2], 8.64.

For the molecule `Cn1cc2c(C(=O)N[C@H]3CC[C@H](CCN4CCc5nc(OCC(F)F)sc5CC4)CC3)cccc2n1` [II-026], the pKi in assay [1] was less than 5.77; in assay [2] it was 9.70.

As for `Cc1ncc(CC(=O)N[C@H]2CC[C@H](CCN3CCc4nc(OCC(C)(F)F)sc4CC3)CC2)o1` [II-029], the pKi in assay [1] was 5.89; in assay [2], 9.92.

For `Cn1cc2c(C(=O)N[C@H]3CC[C@H](CCN4CCc5nc(OCC(F)(F)F)sc5CC4)CC3)cccc2n1` [II-046], the values for the pKi in assay [1] and in assay [2] were 5.92 and 9.70, respectively.

As to `CN1Cc2c(C(=O)N[C@H]3CC[C@H](CCN4CCc5nc(OCC(F)(F)F)sc5CC4)CC3)cccc2C1=O` [II-047], the pKi was 6.55 in assay [1] and 10.66 in assay [2].

In the case of `Cc1ncc(/C=C/C(=O)N[C@H]2CC[C@H](CCN3CCc4nc(OCC(F)(F)F)sc4CC3)CC2)cn1` [II-048], the pKi in assay [1] was less than 5.77; in assay [2] it was 9.09.

Consider `CC(C)Oc1ccc2c(n1)CCN(CC[C@H]1CC[C@H](NC(=O)c3cccc4nn(C)cc34)CC1)CC2` [II-050], for which the pKi in assay [1] was less than 5.74; in assay [2], 9.29.

For the molecule `Cc1ncc(CC(=O)N[C@H]2CC[C@H](CCN3CCc4nc(OCC(F)(F)F)sc4CC3)CC2)s1` [II-053], in assay [1], the pKi was 6.14.

Take `Cn1cc2c(C(=O)N[C@H]3CC[C@H](CCN4CCc5ccc(OCC(F)F)nc5CC4)CC3)cccc2n1` [II-057]: the pKi in assay [1] is less than 5.77; in assay [2] it was 10.85.

As to `Cc1ncc(CC(=O)N[C@H]2CC[C@H](CCN3CCc4nc(N(C)CC(F)(F)F)sc4CC3)CC2)s1` [II-084], the pKi in assay [1] is 6.29.

As to `Cc1nc(CC(=O)N[C@H]2CC[C@H](CCN3CCc4ccc(OCC(C)(F)F)nc4CC3)CC2)no1` [III-019], the pKi in assay [2] is 9.85.

`Cn1cc2c(C(=O)N[C@H]3CC[C@H](CCN4CCc5ccc(OCC(C)(F)F)nc5CC4)CC3)cccc2n1` [III-027]: the pKi in assay [1] is 6.48.

Take `Cn1cc(CC(=O)N[C@H]2CC[C@H](CCN3CCc4nc(OCC(F)(F)F)sc4CC3)CC2)cn1` [III-037]: in assay [2], the pKi is 9.70.

For the molecule `Cc1ncccc1C(=O)N[C@H]1CC[C@H](CCN2CCc3nc(OCC(F)(F)F)sc3CC2)OC1` [III-182], in assay [2], the pKi was 9.25.

`COc1cc(CC(=O)N[C@H]2CC[C@H](CCN3CCc4nc(OCC(F)(F)F)sc4CC3)OC2)on1` [III-199]: the pKi in assay [2] was 9.70.

On to `Cc1cc(CC(=O)N[C@H]2CC[C@H](CCN3CCc4nc(OCC(F)F)sc4CC3)CC2)no1` [III-282], for which the pKi in assay [2] is 9.09.

For the molecule `COc1cc(CC(=O)N[C@H]2CC[C@H](CCN3CCc4sc(N5CC(F)(F)C5)nc4C3)CC2)on1` [III-578], in assay [1], the pKi is less than 5.77.

Consider `Cc1cc(OCC(=O)N[C@H]2CC[C@H](CCN3CCc4sc(N5CC(F)(F)C5)nc4C3)CC2)no1` [III-581], for which the pKi in assay [1] was 6.09.
